# In the oligonucleotide strings, read from the 5' end, every base follows the letter of its sugar. An asterisk marks phosphorothioate; unmarked linkages are phosphodiester. Other units and linkages are bracketed, terminal groups are in braces. A string of capitals states the bases alone. d = 2'-deoxy (DNA); r = 2'-OH (RNA)
# What was measured:
# HepG2 cells [1] = assay: Ferroptosis-induced fluctuations of labile Fe^2+ and Fe^3+ pools (RSL3); type: cell-based
# Description: Ferroptosis-induced fluctuations of labile Fe^2+ and Fe^3+ pools: HepG2 cells were treated with 1 μM RSL3 in normal MEM at different time points (0, 2, 4, 6, 8, and 10 hours). Then, the cell medium was replaced by iron-deficient MEM containing PEI-ErS or PEI-iErS and incubated in a 37° C., 5% CO2 incubator for another 4 hours. Before imaging, the cells were stained by LysoTracker Red and Hoechst 33258 for 15 min. After washing with PBS, the cells were incubated in iron-deficient MEM during the imaging.
# HepG2 cells [2] = assay: MTT assay of cytotoxicity of RSL3; type: cell-based; settings: 1 μM RSL3, over 8 hours
# Description: To measure the cytotoxicity of RSL3 to HepG2 cells, a standard MTT assay was used. HepG2 cells were seeded at a density of 15,000 cells per well in 96-well plates. When the cells grew to 80% confluence, the medium was replaced by the normal MEM containing 1 μM RSL3 at different time points (0, 2, 4, 6, 8, and 10 hours). Afterward, the cell medium was replaced by the iron-deficient MEM containing PEI-ErS or PEI-iErS, incubated in a 37° C., 5% CO2 incubator for another 4 hours. The absorbance at 570 nm was measured with a SpectraMax M2 microplate reader to obtain the MTT assay readings. The untreated cells were set as a blank control for normalization.
# cultured cell lines = assay: Iron redox changes in cultured cell lines with ferroptosis inducers and NCOA4 regulators; type: cell-based
# SH-SY5Y cells = assay: Cell death in FDX1 regulated SH-SY5Y cells with Aβ-Cu treatment; type: cell-based; settings: FDX1 knocked down cells; 25 µM Tempol or 100 μM Trolox
# Source text: FIGS. 21A-21C depict cell death in FDX1 regulated SH-SY5Y cells with Aβ-Cu treatment. […] For all graphs, ****p<0.0001, ***p<0.001, **p<0.01, and ns is p>0.05.
# Both oxidative stresses and proteotoxic stresses mediated cuproptosis were also observed in neurons during copper overload by elesclomol (ES), which is a copper ionophore, contributing to neuronal death. The high redox properties of copper can promote the Aβ-induced oxidative stress and subsequent neuronal death. […] The hypothesis is that the property of Aβ can be acted as a copper ionophore is part of what contributes to the pathological effects of cuproptosis in AD. To explore more about whether cuproptosis is related to AD neurodegeneration and understand the role of Aβ-Cu in neuronal death, the viability of SH-SY5Y cells with FDX1 knocked down by RNAi were monitored by stimulating with different CuCl2 concentration and 10 μM Aβ for overnight. […] Cu^2+ ions bound to Aβ are consistently more toxic to neuronal cells than Aβ in the absence of Cu^2+ ions.
# [3] = test system: corpus callosum brain region; assay: Iron changes in the cuprizone model of Multiple Sclerosis; type: in vivo, mice; settings: over the course of cuprizone treatment; back to normal upon removal
# Description: The study also co-stained the sensors with other antibodies to identify cell identities in neuron degenerative diseases, such as Alzheimer's disease. The antibody staining was performed before staining iron sensors. After traditional immunochemistry staining (need to avoid antigen exposures that require H2O2 or other oxidative reagents), brain slices were changed into the BisTris buffer for iron sensors and incubated with iron sensors for 30 minutes. Then the brain slices were mounted onto slices and imaged immediately to minimize the background cleavage or degradation of the sensors. The iron redox changes in specific cell types were evaluated by taking images with a confocal microscope and analyzing the iron signal that colocalized with specific antibodies. […] The study also observed a decrease in iron levels in microglial cells of wildtype mice brains in the hippocampal region, but an increase in iron levels in 3×Tg mice brains. […] More detailed investigations are still going on to test how they are correlated with this disease process.
# With a similar technique, the iron changes were studied with the cuprizone model of Multiple Sclerosis as well. […] The Fe^3+/Fe^2+ elevation was back to normal upon the removal of the chemical, and remyelination of the mice brains.
# [4] = Gel based activity assay of Cu^2+ DNAzyme; type: biochemical
# Description: (§1) FIG. 10 depicts gel and fluorescence-based activity assay for Cu^+ and Cu^2+ DNAzyme. PAGE Gel images of Cu^+ DNAzyme cleaving the substrate in the presence of various concentrations of Cut. Lane 1: Cu^+ aS, Lane 2: Cu^+ aE, Lane 3-10: the concentration of Cu^2+ is 0 nM, 125 nM, 250 nM, 500 nM, 1 μM, 2 μM, 4 μM, and 8 μM, respectively, the concentration of ascorbate is 50 μM. Quantification of Cu^+. Inset is the linear response at low Cu^+ concentrations. denaturing gel images of Cu^2+ DNAzyme cleaving the substrate in the presence of various concentrations of Cu^2+. Lane1-8: the concentration of Cu^2+ is 0 μM, 1 μM, 2 μM, 4 μM, 6 μM, 8 μM, 10 μM, and 20 μM, respectively. Quantification of Cu^2+. Inset: the linear response at low Cu^2+ concentrations.
# (§2) Gel based activity assays: For Cu^+ DNAzyme, 1 μM of Cu1 aS and 2 μM of Cu1 aE were added in 50 mM Bis-Tris, 150 mM NaCl, pH 7.5. The solution was heated at 90° C. for 5 min and slowly cooled down to room temperature for more than 1 h to anneal the DNAzyme. After annealing, each sample contains a final of 5 μL of 0.25 μM DNAzyme complex. 2 ul of 50 μM of freshly prepared ascorbate was mixed with DNAzyme complex. After adding 2 μl different concentration of Cu^2+, incubated at room temperature for 60 min. […] The gels were analyzed with Bio-Rad Gel Doc 2000 imaging system.
# [5] = Fluorescence based activity assay of Cu^2+ sensor; type: biochemical; settings: fluorescence at 520 nm, 30 min
# Description: (§3) Fluorescence based activity assay: For Cu^+ sensor, […] of Cu1 aS Cy5 and 9 µM of Cu1 aE Q were annealed in a buffer of 50 mM Bis-Tris, 150 mM NaCl, pH 7.5. For each test, 2 μL of the annealed sensor was diluted into 194 μL of buffer (50 mM Bis-Tris, 150 mM NaCl, pH 7.5), and 2 μL of 5 mM ascorbate was added. Then 2 μL of 2 μl different concentration of Cu^2+ were added. The signaling kinetics were monitored (Ex=635 nm; Em=666 nm) using Hitachi fluorimeter. For Cu^2+ sensor, the DNAzyme complex was formed by annealing the 5 μM of Cu2 PSrS FAM and 7.5 μM Cu2 aE Q in 50 mM MES, 25 mM NaCl, pH 6.0. For each well, 2 μL of the annealed sensor was diluted into 196 μL of buffer (50 mM MES, 25 mM NaCl, pH 6.0). 2 μL different concentration of Cu^2+ were added to initiate cleavage reaction, and the signaling kinetics were monitored (Ex=488 nm; Em=520 nm) using Hitachi fluorimeter.
# HepG2 or Hela cells = assay: Simultaneous imaging of labile Fe^2+ and Fe^3+ in living cells treated with Tf or DFO; type: cell-based
# Description: For delivery of DNAzyme sensors using PEI (66, 67), the corresponding Fe(II)-H5-ErS, Fe(II)-H5-iErS, Fe(III)-B12-ErS, and Fe(III)-B12-iErS (final concentration of 10 μM) were mixed in the Fe^2+ buffer and Fe^3+ buffer separately. The mixtures were annealed at 95° C. for 5 min and stored at room temperature to allow full hybridization. PEI (25 kDa) was dissolved in water at 1 mg/ml. […] The normal cell medium was replaced with iron-deficient medium before the PEI-ErS or PEI-iErS was added to the cells grown in the plates.
# After incubating HepG2 cells with PEI-ErS or PEI-iErS complex for 4 hours, cells were washed with phosphate-buffered saline (PBS) twice to remove excess amounts of complexes in medium. Then, the cells were stained by Hoechst 33258 for 15 min. Images were obtained using a Zeiss LSM 880 confocal microscope at 63× oil objective lens with numerical aperture 1.40 and immersion medium Immersol 518 F (Zeiss) at the UIUC IGB Core Facilities. Florescence emission of Hoechst 33258 was measured over 450 to 500 nm with excitation at 401 nm. Fe(II)-H5 was excited by 488 nm and measured over 500 to 550 nm, and Fe(III)-B12 was excited at 633 nm and measured over 640 to 700 nm. A laser power of 67% and pinhole size of 1 […] (AU) were used for the cellular images. Acquired images were analyzed by ImageJ using JACoP (88, 89). No background subtraction, Z-stacks, Gaussian blur filter, or change thresholds were performed for visualizing the figures. For cell fluorescence quantification, the study quantified the average fluorescence signals intensity in five cells (for TurboFect transfected cells) or five LysoTracker-labeled regions in different cells (for PEI transfected cells), per picture and three pictures per group with Image J (88), for the statistical comparison between groups.
# Simultaneous imaging of labile Fe^2+ and Fe^3+ in living cells: HepG2 or Hela cells were cultured in glass-bottom dishes until about 70% confluence. The cells were pretreated with iron-deficient MEM containing either 100 μM DFO, 100 μM ferric ammonium citrate, […] holo-Tf, or 50 μM Tf for 4 hours, and then, the medium was replaced with an iron-deficient MEM containing PEI-ErS or PEI-iErS complexes or Opti-MEM containing 1 μl of TurboFect transfection reagent as described above for 4 hours. Before imaging, the cells were stained by LysoTracker Red and Hoechst 33258 for 15 min. After washing with PBS, the cells were incubated in iron-deficient MEM or regular DMEM, respectively, during the imaging.
# Data processing and statistical analysis: To have a direct comparison of the iron amount between groups, the background signals were normalized by subtracting the fluorescence signals in iErS groups from the ErS groups (F-F0). No Z-stacks or change thresholds were used for statistical analysis. Graphs were plotted with GraphPad (GraphPad Software Inc.) or Origin (OriginLabs Corporation) and correspond to a single experiment. Bars represent means±SEM. Two-tailed distribution and two-sample equal variance t test were used for analyzing significance. Dixon's Q tests were performed to identify and exclude outliners. *P<0.05, **P<0.01, and ***P <0.001. […] The presented data described the quantification from single representative replicates from those biological replicates.
# cells = assay: Fe signal changes detected with DNAzyme sensors and flow cytometry; type: cell-based; settings: treated with Transferrin
# Source text: Preliminary results: The study detected the Fe signal changes with DNAzyme sensors and flow cytometry.
# [6] = Gel based activity assay of Cu^+ DNAzyme; type: biochemical
# Description: as §1, §2
# [7] = Fluorescence based activity assay of Cu^+ sensor; type: biochemical; settings: fluorescence at 666 nm, 30 min
# Description: as §3
# [8] = 5 μM Tf group, iron-deficient medium
molecule,measurement,setting,value
"COC(=O)c1ccc([C@@H]2c3[nH]c4ccccc4c3C[C@@H](C(=O)OC)N2C(=O)CCl)cc1 [RSL3, RAS-selective lethal 3]",increase of Fe^2+,"HepG2 cells [1]; 1 μM RSL3, from 0 to 2 hours, LysoTracker-labeled region",2.3 fold
same,increase of Fe^3+,"HepG2 cells [1]; 1 μM RSL3, from 0 to 4 hours, LysoTracker-labeled region",2.8 fold
same,increase of Fe^2+,"HepG2 cells [1]; 1 μM RSL3, from 2 to 4 hours, LysoTracker-labeled region",4.3 fold
same,Fe^3+/Fe^2+ ratio (Fe redox) during ferroptosis,"HepG2 cells [1]; RSL3-induced ferroptosis, endo-lysosomes",continuous decrease
same,Fe^2+ and Fe^3+ levels in later stage of ferroptosis,HepG2 cells [1]; after 4 hours,both iron levels decreased
same,MTT assay result,HepG2 cells [2],cell death
same,Fe^2+ and Fe^3+ during induced ferroptosis,cultured cell lines,increased
same,Fe^3+/Fe^2+ ratio during induced ferroptosis,cultured cell lines,decreased
CC1(C)CC(O)CC(C)(C)N1[O] [Tempol],rescue of Aβ-Cu induced cell death by ROS scavenger,SH-SY5Y cells,fail to fully rescue
Cc1c(C)c2c(c(C)c1O)CCC(C)(C(=O)O)O2 (stereo not shown) [Trolox],rescue of Aβ-Cu induced cell death by ROS scavenger,SH-SY5Y cells,fail to fully rescue
O=C(NN=C1CCCCC1)C(=O)NN=C1CCCCC1 [cuprizone],iron redox (Fe^3+/Fe^2+) in corpus callosum,[3],elevated iron redox
Cu^2+ DNAzyme: substrate strand Cu2 PSrS annealed with enzyme strand Cu2 aE (chain 1 dAdGdTdCdAdCdTdAdTrA*dGdGdAdAdGdAdTdGdGdCdGdAdAdA; chain 2 TTTCGCCATCTTCACCAGGAAATAGTGACT; chain 2: unmodified DNA),activity with high ascorbic,[4],no activity
same,selectivity between copper oxidation states,[4],excellent selectivity
same,detection limit,[5],35.16 nM
transferrin [Tf],increase of Fe^2+ sensor signal,HepG2 or Hela cells; [8],1.9 fold
same,increase of Fe^3+ sensor signal,HepG2 or Hela cells; [8],1.6 fold
same,increase for both Fe^3+ and Fe^2+,HepG2 or Hela cells; normal cell media,around 4 fold
same,change of the Fe^3+/Fe^2+ ratio,HepG2 or Hela cells; treated cells,No significant change
same,cells with elevated fluorescence intensity (moved from Q4 to Q2),cells,More than 20%
"Cu^+ DNAzyme: substrate strand Cu1 aS annealed with enzyme strand Cu1 aE (nucleic acid, DNA, backbone not given here; Cy5 on substrate, Iowa Black RQ on enzyme, further chemistry not fully specified, substrate strand Cu1 aS annealed with enzyme strand Cu1 aE) chain 1: AGCTTCTTTCTAATACGGCTTACCAC chain 2: GTGGTAAGCCTGGGCCTCTTTCTTTTTAAGAAAGAAC",selectivity between copper oxidation states,[6],excellent selectivity
same,cleavage dependence on ascorbic,[6]; no cleavage products at low concentrations of ascorbic,ascorbic concentration dependent cleavage
same,detection limit,[7],53.92 nM
